Data reported in ChEMBL document CHEMBL4265904, “Hybrids of arenobufagin and benzoisoselenazol reducing the cardiotoxicity of arenobufagin” (Bioorg Med Chem Lett, 2018).
The source made the active and inactive calls. The rule behind the calls is not given here.

Key:
[1] = Cytotoxic activity against human AC16 cells assessed as cell swelling at 1 uM after 24 hrs by phase contrast microscopic method; type: cell-based
[2] = Cytotoxic activity against human AC16 cells assessed as cell detachment from substratum at 1 uM after 24 hrs by phase contrast microscopic method; type: cell-based
HepG2 [3] = experiment: Antiproliferative activity against human HepG2 cells by MTT assay; type: functional, cell-based
[4] = Antiproliferative activity against human AC16 cells by MTT assay; type: cell-based
Homo sapiens = species: Homo sapiens; experiment: Cytoprotective activity against H2O2-induced oxidative damage in human AC16 cells at 1 uM preincubated for 30 mins followed by H2O2 addition and measured after 6 hrs; type: functional, cell-based
HepG2 [5] = experiment: Inhibition of ROS generation in human HepG2 cells at 1 uM after 2 hrs by DCFH-DA staining based method; type: functional, cell-based
[6] = Selectivity index, ratio of IC50 for human AC16 cells to IC50 for human HepG2 cells; type: toxicity; conditions: AC16 cells and HepG2 cells, read-out: Ratio IC50
[7] = Antiproliferative activity against human HepG2/ADM cells by MTT assay; type: functional, cell-based
HepG2 [8] = experiment: Antiproliferative activity against human HepG2 cells after 48 hrs by MTT assay; type: functional, cell-based; conditions: HepG2, 48 h
[9] = Toxicity in ip dosed Kunming mouse assessed as mortality; type: organism-based; conditions: in vivo

SMILES	Activity [1]	Activity [2]	IC50 (HepG2 [3]) [µM]	IC50 [4] [µM]	Activity (Homo sapiens)	inhibition (HepG2 [5])	selectivity ratio [6]	IC50 [7] [µM]	IC50 (HepG2 [8]) [µM]	LD50 [9] [mg/kg]
COc1ccc2c(=O)n([C@@H](Cc3ccccc3)C(=O)O[C@H]3CC[C@@]4(C)[C@H](CC[C@@H]5[C@@H]4[C@H](O)C(=O)[C@]4(C)[C@@H](c6ccc(=O)oc6)CC[C@]54O)C3)[se]c2c1	Non-Toxic	Non-Toxic	0.305	2.2	Active	Active	7.21	5.86		
C[C@]12CC[C@H](OC(=O)[C@H](Cc3ccccc3)n3[se]c4cc(C(F)(F)F)ccc4c3=O)C[C@H]1CC[C@@H]1[C@@H]2[C@H](O)C(=O)[C@]2(C)[C@@H](c3ccc(=O)oc3)CC[C@]12O	Non-Toxic	Non-Toxic	0.265	4.3	Active	Active	16.2	9.74		
C[C@]12CC[C@H](OC(=O)[C@H](Cc3ccccc3)n3[se]c4ccccc4c3=O)C[C@H]1CC[C@@H]1[C@@H]2[C@H](O)C(=O)[C@]2(C)[C@@H](c3ccc(=O)oc3)CC[C@]12O	Non-Toxic	Non-Toxic	0.339	3.21	Active	Active	9.47	5.59		
Cc1ccc2c(=O)n(CC(=O)O[C@H]3CC[C@@]4(C)[C@H](CC[C@@H]5[C@@H]4[C@H](O)C(=O)[C@]4(C)[C@@H](c6ccc(=O)oc6)CC[C@]54O)C3)[se]c2c1			0.607	2.13			3.51	2.45		
CC[C@H](C)[C@@H](C(=O)O[C@H]1CC[C@@]2(C)[C@H](CC[C@@H]3[C@@H]2[C@H](O)C(=O)[C@]2(C)[C@@H](c4ccc(=O)oc4)CC[C@]32O)C1)n1[se]c2cc(OC)ccc2c1=O			14.5	15			1.03	36.7		
Cc1ccc2c(=O)n([C@@H](Cc3ccccc3)C(=O)O[C@H]3CC[C@@]4(C)[C@H](CC[C@@H]5[C@@H]4[C@H](O)C(=O)[C@]4(C)[C@@H](c6ccc(=O)oc6)CC[C@]54O)C3)[se]c2c1	Non-Toxic	Non-Toxic	0.489	3.57	Active		7.3	7.94		
C[C@]12CC[C@H](O)C[C@H]1CC[C@@H]1[C@@H]2[C@H](O)C(=O)[C@]2(C)[C@@H](c3ccc(=O)oc3)CC[C@]12O	Toxic	Toxic	0.02	0.005			0.25	0.056	0.0001 to 0.01	20
O=c1c2ccccc2[se]n1-c1ccccc1					Active					
